Source: patent US4442108A, “Hydrogenated isoquinolines and peripheral vascular disease treating compositions thereof” (Laboratoires Sobio S.A. of Immeuble Perisud, priority 1981, dated 1984)
Counter-ions that a name gives are not always drawn. Like-named read-outs stand apart in the source and are kept apart here.

Experiments:
[1] = test system: isolated ileum of the guinea pig; test: Spasmolytic activity in vitro, barium chloride contraction of isolated ileum; format: cell-based; conditions: Cavia porcellus, Tyrode liquid, 37° C., barium chloride as contracting agent, product added 30 seconds before, read-out: EC50 (concentration required to cause inhibition of contraction in 50% of the population)
Method: The tests are carried out on isolated ileum of the guinea pig surviving in Tyrode liquid, aerated and maintained at 37° C. The products are added 30 seconds before affusion of barium chloride used as contracting agent. The concentrations required to cause inhibition of contraction in 50% of the population (EC50) was given in table II compared with papaverine.

[2] = test system: dogs anaesthetized with chloralose; test: Cardiovascular activity in anaesthetized dogs; format: in vivo, dog; conditions: i.v., 1/15 to 1/30 of the mouse i.v. LD50
Method: The following parameters were recorded in dogs anaesthetized with chloralose, and under artificial respiration:
left ventricular contractile force.
The compounds tested were injected intravenously in a dose of from (1/15) to (1/30) of the LD50 (i.v.) previoulsy determined in mice.

[3] = Acute toxicity, LD50 in mice (method of Litchfield and Wilcoxon), intravenous route; conditions: in vivo
Method: LD50 values in mice for several compounds of the invention were obtained by the method of Litchfield and Wilcoxon (J. Pharmacol. (1949), 96.99) after the administration of the test compound by intravenous route (i.v.) in the mouse (CD, males 18-24 g) in a volume of 0.40 ml/20 g of body weight. The mortality is noted 7 days after administration.

[4] = mouse, read-out: LD50 and limits (p = 0.05)
[5] = mouse CD males, i.v., 0.40 ml/20 g, mortality noted 7 days after administration, limits p = 0.05 in brackets

SMILES | EC50 [1] [µM] | effect on blood pressure (mean aortic pressure) [2] | effect on left ventricular contractile force [2] | LD50 at 168 h [3, 4] [mg/kg] | effect on cardiac frequency [2] | LD50 at 168 h [3, 5] [mg/kg]
CCOc1cc2c(cc1OCC)C(Cc1ccc(OC(C)C)c(OC(C)C)c1)=NCC2 [Example 1, 6,7-Diethoxy-1-(3'4'-diisopropoxybenzyl-3,4-dihydroisoquinoline hydrochloride] | 11 | transient hypotension | reduction in the amplitude of ventricular contraction | 19 |  | 
COc1ccc(Cc2nccc3cc(OC)c(OC)cc23)cc1OC [papaverine, 1-(3',4'-dimethoxybenzyl)-6,7-dimethoxy isoquinoline, reference compound] |  | transient hypotension | increase of the ventricular contractile force |  | tachycardia | 
CCOc1cc2c(cc1OCC)C(Cc1ccc(OC(C)C)c(OC(C)C)c1)NCC2 (centres unmarked) [Example 11, 6,7-Diethoxy-1-(3',4'-diisopropoxybenzyl)-1,2,3,4-tetrahydroisoquinoline hydrochloride] | 60 |  |  |  |  | 22
CCCOc1cc2c(cc1OCCC)C(Cc1ccc(OCC)c(OCC)c1)=NCC2.Cl [Example 4, 1-(3',4'-Diethoxybenzyl)-6,7-di-n-propoxy-3,4-dihydroisoquinoline hydrochloride] | 3.7 | transient hypotension | reduction in the amplitude of ventricular contraction |  |  | 13.5
COc1ccc(Cc2nccc3cc(OC)c(OC)cc23)cc1OC [Papauerine HCl, reference compound] | 980 |  |  |  |  | 
CCOc1ccc(CC2=NCCc3cc(OC(C)C)c(OC(C)C)cc32)cc1OCC [Example 2, 1-(3'4'-Diethoxybenzyl)-6,7-diisopropoxy-3,4-dihydroisoquinoline hydrochloride] | 4.2 | transient hypotension | reduction in the amplitude of ventricular contraction | 8.2 |  | 
CCOc1ccc(CC2NCCc3cc(OC(C)C)c(OC(C)C)cc32)cc1OCC.Cl (centres unmarked) [Example 10, 1-(3',4'-Diethoxybenzyl)-6,7-diisopropoxy-1,2,3,4-tetrahydroisoquinoline hydrochloride] | 10 | transient hypotension | reduction in the amplitude of ventricular contraction |  |  | 19
CCCOc1ccc(CC2=NCCc3cc(OCC)c(OCC)cc32)cc1OCCC.Cl [Example 3, 6,7-Diethoxy-1-(3',4'-di-n-propoxybenzyl)-3,4-dihydroisoquinoline hydrochloride] | 3.2 | transient hypotension | reduction in the amplitude of ventricular contraction |  |  | 17.5
